From patent US20030153618A1, “Treatment and prevention of herpes simplex infections” (priority 1999, published 2003)
“And” between values parts separate entries of the source, which are not always exact repeats. Equal entries are not always repeated.

Experiments:
[1] = tested on: HSV, Type II; assay: Direct plaque-forming unit (PFU) count in BSC cells in defined media with set lysine (or derivative):arginine ratio; assay type: cell-based; conditions: for P.F.U. Count: average of three tests; for Plaque Forming Unit Count, Average: average of experiments 1-6
Description: Absorbed virons were absorbed in susceptible cells in chemically defined media and the number of plaques made were counted. (See Davis, B. D., et al., Microbiology, 2nd Ed., Harper & Row, 1973, Part V, and sources cited therein for procedural details and discussion of the plaque method.)
The cell line chosen was green monkey kidney cells (BSC) that have been passed greater than 41 times. […] The virons were added to a confluent lawn of BSC cells and allowed to absorb at 25° C. for one hour. The unabsorbed virons and the media were removed by washing three times in PBS. […] The control media contained a lysine/arginine ratio of 1:1. The plaques were counted when easily readable. Flasks are done in triplicate.

[2] = tested on: Herpes simplex II virus; assay: Back titration plaque assay: PFU counts at stated amounts of compound under test and arginine; assay type: cell-based, Herpes simplex II virus (BSC cells)
Description: The following experiments were conducted by back titration: Herpes simplex II virus from laboratory stocks was used. BSC cells were grown to confluence in Eagles medium with 15% fetal calf serum, 150 units per milliliter of penicillin and 100 micrograms per milliliter of streptomycin. The cultures were inoculated with 500 PFU of HS II. The virons were allowed to absorb for one hour at 25° C. The tissue cultures were then washed three times with sterile PBS to remove excess media and non-absorbed virons. The cells were then incubated at 37° C. until four-plus cytopathic effects were observed. The cells were then disrupted by slow freeze-thaw two times. The suspension was then clarified by slow speed centrifugation at 4° C. The supemanant suspension was then added to confluent BSC cultures. After one hour absorption, the cells were washed with PBS twice. The cells were overlaid in defined reagent (in triplicate) Eagles media in noble agar. The cells were then incubated at 37° C. until the plaques were easily counted, usually 40 t 72 hours. the cells were then washed two times with PBS and then fixed with 10% H2CO and a 2% sodium acetate. The cells were then stained in 0.1% crystal violet in ethanol. In the tables which follow the concentration of the compound to be tested, in micrograms per milliliter, is listed across the top of the table and the concentration of arginine in micrograms per milliliter is listed down the left side of the table, the count of plaque-forming units being shown in the matrix.

[3] = Compound Ratio to Arginine 10:1
[4] = Compound Ratio to Arginine 100:1
[5] = compound 10 μg/ml, arginine 0 μg/ml
[6] = compound 10 μg/ml, arginine 2.5 μg/ml
[7] = compound 10 μg/ml, arginine 5.0 μg/ml
[8] = compound 10 μg/ml, arginine 7.5 μg/ml
[9] = compound 10 μg/ml, arginine 10 μg/ml
[10] = compound 10 μg/ml, arginine 15 μg/ml
[11] = compound 10 μg/ml, arginine 20 μg/ml
[12] = compound 10 μg/ml, arginine 25 μg/ml
[13] = compound 25 μg/ml, arginine 0 μg/ml
[14] = compound 25 μg/ml, arginine 2.5 μg/ml
[15] = compound 25 μg/ml, arginine 5.0 μg/ml
[16] = compound 25 μg/ml, arginine 7.5 μg/ml
[17] = compound 25 μg/ml, arginine 10 μg/ml
[18] = compound 25 μg/ml, arginine 15 μg/ml
[19] = compound 25 μg/ml, arginine 20 μg/ml
[20] = compound 25 μg/ml, arginine 25 μg/ml
[21] = compound 50 μg/ml, arginine 0 μg/ml
[22] = compound 50 μg/ml, arginine 2.5 μg/ml
[23] = compound 50 μg/ml, arginine 5.0 μg/ml
[24] = compound 50 μg/ml, arginine 7.5 μg/ml
[25] = compound 50 μg/ml, arginine 10 μg/ml
[26] = compound 50 μg/ml, arginine 15 μg/ml
[27] = compound 50 μg/ml, arginine 20 μg/ml
[28] = compound 50 μg/ml, arginine 25 μg/ml
[29] = compound 100 μg/ml, arginine 0 μg/ml
[30] = compound 100 μg/ml, arginine 2.5 μg/ml
[31] = compound 100 μg/ml, arginine 5.0 μg/ml
[32] = compound 100 μg/ml, arginine 7.5 μg/ml
[33] = compound 100 μg/ml, arginine 10 μg/ml
[34] = compound 100 μg/ml, arginine 15 μg/ml
[35] = compound 100 μg/ml, arginine 20 μg/ml
[36] = compound 100 μg/ml, arginine 25 μg/ml
[37] = compound 200 μg/ml, arginine 0 μg/ml
[38] = compound 200 μg/ml, arginine 2.5 μg/ml
[39] = compound 200 μg/ml, arginine 5.0 μg/ml
[40] = compound 200 μg/ml, arginine 7.5 μg/ml
[41] = compound 200 μg/ml, arginine 10 μg/ml
[42] = compound 200 μg/ml, arginine 15 μg/ml
[43] = compound 200 μg/ml, arginine 20 μg/ml
[44] = compound 200 μg/ml, arginine 25 μg/ml
[45] = compound 300 μg/ml, arginine 0 μg/ml
[46] = compound 300 μg/ml, arginine 2.5 μg/ml
[47] = compound 300 μg/ml, arginine 5.0 μg/ml
[48] = compound 300 μg/ml, arginine 7.5 μg/ml
[49] = compound 300 μg/ml, arginine 10 μg/ml
[50] = compound 300 μg/ml, arginine 15 μg/ml
[51] = compound 300 μg/ml, arginine 20 μg/ml
[52] = compound 300 μg/ml, arginine 25 μg/ml
[53] = compound 400 μg/ml, arginine 0 μg/ml
[54] = compound 400 μg/ml, arginine 2.5 μg/ml
[55] = compound 400 μg/ml, arginine 5.0 μg/ml
[56] = compound 400 μg/ml, arginine 7.5 μg/ml
[57] = compound 400 μg/ml, arginine 10 μg/ml
[58] = compound 400 μg/ml, arginine 15 μg/ml
[59] = compound 400 μg/ml, arginine 20 μg/ml
[60] = compound 400 μg/ml, arginine 25 μg/ml
[61] = compound 500 μg/ml, arginine 0 μg/ml
[62] = compound 500 μg/ml, arginine 2.5 μg/ml
[63] = compound 500 μg/ml, arginine 5.0 μg/ml
[64] = compound 500 μg/ml, arginine 7.5 μg/ml
[65] = compound 500 μg/ml, arginine 10 μg/ml
[66] = compound 500 μg/ml, arginine 15 μg/ml
[67] = compound 500 μg/ml, arginine 20 μg/ml
[68] = compound 500 μg/ml, arginine 25 μg/ml

CC(CCN)CC(N)C(=O)O (stereo not shown) [4-Methyl lysine]
P.F.U. Count [1, 3]: 541 | P.F.U. Count [1, 4]: 140 | P.F.U. Count [2, 5]: 37 | P.F.U. Count [2, 6]: 110 | P.F.U. Count [2, 7]: 3.7 × 10^3 | P.F.U. Count [2, 8]: 7.2 × 10^4 | P.F.U. Count [2, 9]: 9.6 × 10^4 | P.F.U. Count [2, 10]: 2.3 × 10^5 | P.F.U. Count [2, 11]: 3.1 × 10^5 | P.F.U. Count [2, 12]: 3.3 × 10^5 | P.F.U. Count [2, 13]: 10 | P.F.U. Count [2, 14]: 74 | P.F.U. Count [2, 15]: 310 | P.F.U. Count [2, 16]: 6.6 × 10^4 | P.F.U. Count [2, 17]: 8.7 × 10^4 | P.F.U. Count [2, 18]: 9.6 × 10^4 | P.F.U. Count [2, 19]: 3.3 × 10^5 | P.F.U. Count [2, 20]: 3.4 × 10^5 | P.F.U. Count [2, 21]: 0 | P.F.U. Count [2, 22]: 0 | P.F.U. Count [2, 23]: 671 | P.F.U. Count [2, 24]: 5.0 × 10^4 | P.F.U. Count [2, 25]: 7.0 × 10^4 | P.F.U. Count [2, 26]: 7.9 × 10^4 | P.F.U. Count [2, 27]: 3.1 × 10^5 | P.F.U. Count [2, 28]: 3.6 × 10^5 | P.F.U. Count [2, 29]: 0 | P.F.U. Count [2, 30]: 0 | P.F.U. Count [2, 31]: 371 | P.F.U. Count [2, 32]: 4.2 × 10^4 | P.F.U. Count [2, 33]: 4.0 × 10^7 | P.F.U. Count [2, 34]: 5.0 × 10^4 | P.F.U. Count [2, 35]: 3.6 × 10^5 | P.F.U. Count [2, 36]: 3.1 × 10^5 | P.F.U. Count [2, 37]: 0 | P.F.U. Count [2, 38]: 0 | P.F.U. Count [2, 39]: 191 | P.F.U. Count [2, 40]: 1.0 × 10^4 | P.F.U. Count [2, 41]: 1.8 × 10^4 | P.F.U. Count [2, 42]: 6.8 × 10^4 | P.F.U. Count [2, 43]: 3.2 × 10^5 | P.F.U. Count [2, 44]: 3.0 × 10^5 | P.F.U. Count [2, 45]: 0 | P.F.U. Count [2, 46]: 0 | P.F.U. Count [2, 47]: 169 | P.F.U. Count [2, 48]: 1.1 × 10^7 | P.F.U. Count [2, 49]: 1.9 × 10^4 | P.F.U. Count [2, 50]: 2.7 × 10^4 | P.F.U. Count [2, 51]: 3.1 × 10^5 | P.F.U. Count [2, 52]: 3.3 × 10^5 | P.F.U. Count [2, 53]: 0 | P.F.U. Count [2, 54]: 0 | P.F.U. Count [2, 55]: 671 | P.F.U. Count [2, 56]: 1.9 × 10^3 | P.F.U. Count [2, 57]: 1.7 × 10^4 | P.F.U. Count [2, 58]: 2.0 × 10^4 | P.F.U. Count [2, 59]: 3.0 × 10^5 | P.F.U. Count [2, 60]: 3.3 × 10^5 | P.F.U. Count [2, 61]: 0 | P.F.U. Count [2, 62]: 0 | P.F.U. Count [2, 63]: 239 | P.F.U. Count [2, 64]: 6.7 × 10^3 | P.F.U. Count [2, 65]: 1.3 × 10^4 | P.F.U. Count [2, 66]: 1.4 × 10^4 | P.F.U. Count [2, 67]: 2.4 × 10^5 | P.F.U. Count [2, 68]: 2.9 × 10^5

CC(CN)CC[C@H](N)C(=O)O (stereo partly shown) [5-Methyl lysine]
P.F.U. Count [1, 3]: 79 | P.F.U. Count [1, 4]: 43 | P.F.U. Count [2, 5]: 30 | P.F.U. Count [2, 6]: 2.7 × 10^3 | P.F.U. Count [2, 7]: 3.7 × 10^4 | P.F.U. Count [2, 8]: 6.0 × 10^4 | P.F.U. Count [2, 9]: 7.9 × 10^4 | P.F.U. Count [2, 10]: 2.0 × 10^5 | P.F.U. Count [2, 11]: 3.0 × 10^5 | P.F.U. Count [2, 12]: 3.0 × 10^5 | P.F.U. Count [2, 13]: 0 | P.F.U. Count [2, 14]: 697 | P.F.U. Count [2, 15]: 1.4 × 10^3 | P.F.U. Count [2, 16]: 4.7 × 10^3 | P.F.U. Count [2, 17]: 6.5 × 10^4 | P.F.U. Count [2, 18]: 1.7 × 10^4 | P.F.U. Count [2, 19]: 3.1 × 10^5 | P.F.U. Count [2, 20]: 3.0 × 10^5 | P.F.U. Count [2, 21]: 0 | P.F.U. Count [2, 22]: 0 | P.F.U. Count [2, 23]: 190 | P.F.U. Count [2, 24]: 190 | P.F.U. Count [2, 25]: 1.7 × 10^3 | P.F.U. Count [2, 26]: 1.3 × 10^3 | P.F.U. Count [2, 27]: 3.0 × 10^5 | P.F.U. Count [2, 28]: 3.0 × 10^5 | P.F.U. Count [2, 29]: 0 | P.F.U. Count [2, 30]: 0 | P.F.U. Count [2, 31]: 69 | P.F.U. Count [2, 32]: 170 | P.F.U. Count [2, 33]: 656 | P.F.U. Count [2, 34]: 710 | P.F.U. Count [2, 35]: 1.2 × 10^5 | P.F.U. Count [2, 36]: 2.4 × 10^5 | P.F.U. Count [2, 37]: 0 | P.F.U. Count [2, 38]: 0 | P.F.U. Count [2, 39]: 0 | P.F.U. Count [2, 40]: 0 | P.F.U. Count [2, 41]: 79 | P.F.U. Count [2, 42]: 63 | P.F.U. Count [2, 43]: 2.7 × 10^5 | P.F.U. Count [2, 44]: 4.1 × 10^5 | P.F.U. Count [2, 45]: 0 | P.F.U. Count [2, 46]: 0 | P.F.U. Count [2, 47]: 0 | P.F.U. Count [2, 48]: 0 | P.F.U. Count [2, 49]: 0 | P.F.U. Count [2, 50]: 1.9 × 10^4 | P.F.U. Count [2, 51]: 5.6 × 10^4 | P.F.U. Count [2, 52]: 6.1 × 10^4 | P.F.U. Count [2, 53]: 0 | P.F.U. Count [2, 54]: 0 | P.F.U. Count [2, 55]: 0 | P.F.U. Count [2, 56]: 0 | P.F.U. Count [2, 57]: 0 | P.F.U. Count [2, 58]: 1.9 × 10^4 | P.F.U. Count [2, 59]: 1.7 × 10^4 | P.F.U. Count [2, 60]: 4.6 × 10^4 | P.F.U. Count [2, 61]: 0 | P.F.U. Count [2, 62]: 0 | P.F.U. Count [2, 63]: 0 | P.F.U. Count [2, 64]: 0 | P.F.U. Count [2, 65]: 0 | P.F.U. Count [2, 66]: 1.0 × 10^4 | P.F.U. Count [2, 67]: 2.3 × 10^3 | P.F.U. Count [2, 68]: 4.0 × 10^4

NCCCC[C@H](N)C(=O)O [Lysine, lysine, reference compound]
Plaque Forming Unit Count, Average ([1]; Lysine:Arginine Ratio 1:1 (control media)): 738 | Plaque Forming Unit Count ([1]; Lysine:Arginine Ratio 1:1 (control media), single experiment): 814 and 594 and 631 and 621 and 936 and 781 | Plaque Forming Unit Count, Average ([1]; Lysine:Arginine Ratio 500:1): 12

CC(N)CCCCC(N)C(=O)O (stereo not shown) [drawing 15]
P.F.U. Count [1, 3]: <5 | P.F.U. Count [1, 4]: <5

NCCCCCC(N)C(=O)O (stereo not shown) [drawing 16]
P.F.U. Count [1, 3]: <5 | P.F.U. Count [1, 4]: <5
